Measurements as given in the NIST ThermoML archive (doi:10.1021/acs.jced.6b00430).
± gives the expanded uncertainty stated by the source.

Assay: xn = mol fraction of the nth substance listed
Conditions: 100 kPa, Liquid; for electrical conductivity: Alternating current cell with electrodes; for viscosity: Capillary tube (Ostwald / Ubbelohde) method; for mass density: Vibrating tube method

O=[PH](O)O [phosphonic acid] + O
Conditions	electrical conductivity [S/m]	mass density [kg/m3]	viscosity [mPa·s]
298.15 K, x1 = 0.0122	7.43 ± 0.75	1022.04 ± 10	0.962 ± 0.058
298.15 K, x1 = 0.0215	10.4 ± 1	1039.69 ± 10	1.05 ± 0.06
298.15 K, x1 = 0.0299	13.4 ± 1.3	1055.02 ± 10	1.17 ± 0.07
298.15 K, x1 = 0.0403	16.9 ± 1.7	1073.24 ± 10	–
298.15 K, x1 = 0.0451	–	1081.91 ± 10	–
298.15 K, x1 = 0.0484	18.5 ± 1.9	1087.03 ± 10	–
298.15 K, x1 = 0.0541	20 ± 2	1096.6 ± 10	–
298.15 K, x1 = 0.0682	22.1 ± 2.2	1119.23 ± 10	–
298.15 K, x1 = 0.0704	22.4 ± 2.2	1122.59 ± 10	1.64 ± 0.1
298.15 K, x1 = 0.0799	23.9 ± 2.4	1137.16 ± 10	–
298.15 K, x1 = 0.0832	–	1141.9 ± 10	–
298.15 K, x1 = 0.1011	25.9 ± 2.6	1167.81 ± 10	2.06 ± 0.12
298.15 K, x1 = 0.1335	26 ± 2.6	1210.62 ± 10	2.6 ± 0.16
298.15 K, x1 = 0.1689	25.7 ± 2.6	1252.12 ± 10	–
298.15 K, x1 = 0.1909	25.2 ± 2.5	1275.45 ± 10	–
298.15 K, x1 = 0.197	25 ± 2.5	1281.23 ± 10	–
298.15 K, x1 = 0.2154	24.5 ± 2.5	1299.73 ± 10	4.24 ± 0.26
298.15 K, x1 = 0.2524	23.1 ± 2.3	1332.1 ± 10	5.19 ± 0.31
298.15 K, x1 = 0.292	20.7 ± 2.1	1363.42 ± 10	6.26 ± 0.38
298.15 K, x1 = 0.3959	15.4 ± 1.5	1434.35 ± 10	–
308.15 K, x1 = 0.0122	7.89 ± 0.79	1018.53 ± 10	0.782 ± 0.047
308.15 K, x1 = 0.0215	11.3 ± 1.1	1035.86 ± 10	0.852 ± 0.051
308.15 K, x1 = 0.0299	14.3 ± 1.4	1050.95 ± 10	0.94 ± 0.057
308.15 K, x1 = 0.0403	18.4 ± 1.8	1068.89 ± 10	–
308.15 K, x1 = 0.0451	–	1077.48 ± 10	–
308.15 K, x1 = 0.0484	20 ± 2	1082.48 ± 10	–
308.15 K, x1 = 0.0541	21.3 ± 2.1	1091.91 ± 10	–
308.15 K, x1 = 0.0682	23.9 ± 2.4	1114.22 ± 10	–
308.15 K, x1 = 0.0704	24.2 ± 2.4	1117.57 ± 10	1.31 ± 0.08
308.15 K, x1 = 0.0799	25.5 ± 2.6	1131.9 ± 10	–
308.15 K, x1 = 0.0832	–	1136.63 ± 10	–
308.15 K, x1 = 0.1011	27.4 ± 2.7	1162.2 ± 10	1.65 ± 0.1
308.15 K, x1 = 0.1335	28.6 ± 2.9	1204.48 ± 10	2.08 ± 0.13
308.15 K, x1 = 0.1689	28.5 ± 2.9	1245.45 ± 10	–
308.15 K, x1 = 0.1909	28.5 ± 2.9	1268.54 ± 10	–
308.15 K, x1 = 0.197	28 ± 2.8	1274.31 ± 10	–
308.15 K, x1 = 0.2154	28 ± 2.8	1292.62 ± 10	3.32 ± 0.2
308.15 K, x1 = 0.2524	25.8 ± 2.6	1324.67 ± 10	4.12 ± 0.25
308.15 K, x1 = 0.292	23.9 ± 2.4	1355.74 ± 10	4.94 ± 0.3
308.15 K, x1 = 0.3959	18.5 ± 1.9	1426.18 ± 10	–
318.15 K, x1 = 0.0122	8.18 ± 0.82	1013.66 ± 10	0.636 ± 0.038
318.15 K, x1 = 0.0215	11.8 ± 1.2	1030.98 ± 10	0.689 ± 0.042
318.15 K, x1 = 0.0299	15 ± 1.5	1045.97 ± 10	0.754 ± 0.046
318.15 K, x1 = 0.0403	19.2 ± 1.9	1063.78 ± 10	–
318.15 K, x1 = 0.0451	–	1072.47 ± 10	–
318.15 K, x1 = 0.0484	20.9 ± 2.1	1077.26 ± 10	–
318.15 K, x1 = 0.0541	22.4 ± 2.2	1086.62 ± 10	–
318.15 K, x1 = 0.0682	25.4 ± 2.5	1108.74 ± 10	–
318.15 K, x1 = 0.0704	25.8 ± 2.6	1112.04 ± 10	1.06 ± 0.06
318.15 K, x1 = 0.0799	27.3 ± 2.7	1126.27 ± 10	–
318.15 K, x1 = 0.0832	–	1130.94 ± 10	–
318.15 K, x1 = 0.1011	29.7 ± 3	1156.21 ± 10	1.32 ± 0.08
318.15 K, x1 = 0.1335	31.3 ± 3.1	1198.05 ± 10	1.66 ± 0.1
318.15 K, x1 = 0.1689	31.5 ± 3.2	1238.7 ± 10	–
318.15 K, x1 = 0.1909	31.2 ± 3.1	1261.54 ± 10	–
318.15 K, x1 = 0.197	30.8 ± 3.1	1267.22 ± 10	–
318.15 K, x1 = 0.2154	30 ± 3	1285.38 ± 10	2.68 ± 0.16
318.15 K, x1 = 0.2524	28.8 ± 2.9	1317.07 ± 10	3.27 ± 0.2
318.15 K, x1 = 0.292	27.2 ± 2.7	1347.86 ± 10	3.9 ± 0.24
318.15 K, x1 = 0.3959	21.1 ± 2.1	1418.01 ± 10	–
328.15 K, x1 = 0.0122	8.38 ± 0.84	1009.46 ± 10	0.529 ± 0.032
328.15 K, x1 = 0.0215	12.1 ± 1.2	1026.28 ± 10	0.567 ± 0.034
328.15 K, x1 = 0.0299	15.3 ± 1.5	1041.02 ± 10	0.617 ± 0.037
328.15 K, x1 = 0.0403	19.6 ± 2	1058.55 ± 10	–
328.15 K, x1 = 0.0451	–	1066.53 ± 10	–
328.15 K, x1 = 0.0484	21.9 ± 2.2	1071.83 ± 10	–
328.15 K, x1 = 0.0541	23.5 ± 2.4	1081.05 ± 10	–
328.15 K, x1 = 0.0682	26.5 ± 2.7	1102.88 ± 10	–
328.15 K, x1 = 0.0704	26.9 ± 2.7	1106.07 ± 10	0.866 ± 0.052
328.15 K, x1 = 0.0799	28.6 ± 2.9	1120.18 ± 10	–
328.15 K, x1 = 0.0832	–	1124.84 ± 10	–
328.15 K, x1 = 0.1011	31 ± 3.1	1149.89 ± 10	1.07 ± 0.06
328.15 K, x1 = 0.1335	33.3 ± 3.3	1191.35 ± 10	1.35 ± 0.08
328.15 K, x1 = 0.1689	33.8 ± 3.4	1231.63 ± 10	–
328.15 K, x1 = 0.1909	33.3 ± 3.3	1254.36 ± 10	–
328.15 K, x1 = 0.197	33.2 ± 3.3	1259.95 ± 10	–
328.15 K, x1 = 0.2154	32.5 ± 3.3	1277.98 ± 10	2.2 ± 0.13
328.15 K, x1 = 0.2524	31.3 ± 3.1	1309.72 ± 10	2.65 ± 0.16
328.15 K, x1 = 0.292	30.2 ± 3	1340.42 ± 10	3.14 ± 0.19
328.15 K, x1 = 0.3959	24.1 ± 2.4	1409.83 ± 10	–
338.15 K, x1 = 0.0122	8.4 ± 0.84	1001.4 ± 10	0.464 ± 0.028
338.15 K, x1 = 0.0215	12.2 ± 1.2	1018.77 ± 10	0.49 ± 0.03
338.15 K, x1 = 0.0299	15.6 ± 1.6	1033.72 ± 10	0.531 ± 0.032
338.15 K, x1 = 0.0403	20.3 ± 2	1051.48 ± 10	–
338.15 K, x1 = 0.0451	–	1060.26 ± 10	–
338.15 K, x1 = 0.0484	22.9 ± 2.3	1064.9 ± 10	–
338.15 K, x1 = 0.0541	24.2 ± 2.4	1074.21 ± 10	–
338.15 K, x1 = 0.0682	27.7 ± 2.8	1096.19 ± 10	–
338.15 K, x1 = 0.0704	28.2 ± 2.8	1099.46 ± 10	0.749 ± 0.045
338.15 K, x1 = 0.0799	30 ± 3	1113.58 ± 10	–
338.15 K, x1 = 0.0832	–	1118.32 ± 10	–
338.15 K, x1 = 0.1011	32.9 ± 3.3	1143.23 ± 10	0.922 ± 0.056
338.15 K, x1 = 0.1335	35.3 ± 3.5	1184.38 ± 10	1.16 ± 0.07
338.15 K, x1 = 0.1689	35.5 ± 3.6	1224.52 ± 10	–
338.15 K, x1 = 0.1909	35 ± 3.5	1246.94 ± 10	–
338.15 K, x1 = 0.197	34.9 ± 3.5	1252.51 ± 10	–
338.15 K, x1 = 0.2154	34.1 ± 3.4	1270.41 ± 10	1.88 ± 0.11
338.15 K, x1 = 0.2524	33.5 ± 3.4	1301.38 ± 10	2.25 ± 0.14
338.15 K, x1 = 0.292	32.4 ± 3.2	1331.63 ± 10	2.66 ± 0.16
338.15 K, x1 = 0.3959	25.9 ± 2.6	1401.65 ± 10	–
